Where “and” joins values, the source holds several entries; their conditions need not be identical. Equal values may be shown once.
Assay: molar heat capacity at constant pressure
Settings: 101.33 kPa, relaxation calorimetry

CCc1ncc[n-]1.CCc1ncc[n-]1.[Zn+2] [zinc(II) 2-ethylimidazolide]
molar heat capacity at constant pressure
Settings	Crystal	Glass
20.19 K	17.81 J/K/mol	–
20.5 K	16.98 J/K/mol and 13.71 J/K/mol	–
20.51 K	–	17.11 J/K/mol
22.14 K	20.77 J/K/mol	–
22.42 K	16.31 J/K/mol	–
22.43 K	19.56 J/K/mol	19.76 J/K/mol
24.21 K	23.64 J/K/mol	–
24.49 K	22.58 J/K/mol and 19.45 J/K/mol	–
24.5 K	–	22.96 J/K/mol
25 K	24.79 J/K/mol and 20.1 J/K/mol and 23.3 J/K/mol	23.65 J/K/mol
26.43 K	26.91 J/K/mol	–
26.75 K	22.61 J/K/mol	–
26.76 K	25.8 J/K/mol	–
26.77 K	–	26.23 J/K/mol
28.91 K	30.23 J/K/mol	–
29.23 K	26.38 J/K/mol	–
29.24 K	29.64 J/K/mol	–
29.25 K	–	30.22 J/K/mol
30 K	31.85 J/K/mol and 27.7 J/K/mol and 30.79 J/K/mol	31.35 J/K/mol
31.62 K	34.05 J/K/mol	–
31.94 K	30.76 J/K/mol	34.68 J/K/mol
31.95 K	33.91 J/K/mol	–
34.58 K	38.37 J/K/mol	–
34.9 K	38.58 J/K/mol and 35.55 J/K/mol	39.27 J/K/mol
35 K	38.9 J/K/mol and 35.64 J/K/mol and 38.68 J/K/mol	39.25 J/K/mol
37.81 K	43 J/K/mol	–
38.12 K	40.86 J/K/mol	–
38.13 K	43.67 J/K/mol	43.79 J/K/mol
40 K	45.99 J/K/mol and 43.91 J/K/mol and 46.78 J/K/mol	46.98 J/K/mol
41.34 K	47.77 J/K/mol	–
41.65 K	46.75 J/K/mol	–
41.66 K	49.38 J/K/mol	49.23 J/K/mol
45 K	53.17 J/K/mol and 52.4 J/K/mol and 54.79 J/K/mol	54.36 J/K/mol
45.2 K	53.79 J/K/mol	–
45.5 K	53.14 J/K/mol	–
45.51 K	55.55 J/K/mol	–
45.52 K	–	55.25 J/K/mol
49.41 K	59.46 J/K/mol	–
49.71 K	60.01 J/K/mol	–
49.72 K	62.24 J/K/mol	–
49.73 K	–	61.57 J/K/mol
50 K	60.35 J/K/mol and 60.38 J/K/mol and 62.49 J/K/mol	61.68 J/K/mol
54.02 K	65.55 J/K/mol	–
54.31 K	67.15 J/K/mol	–
54.32 K	–	68.04 J/K/mol
54.33 K	68.86 J/K/mol	–
59.06 K	72.12 J/K/mol	–
59.34 K	74.94 J/K/mol	–
59.35 K	76.53 J/K/mol	75.28 J/K/mol
60 K	73.51 J/K/mol and 75.98 J/K/mol and 77.48 J/K/mol	76.22 J/K/mol
64.56 K	79.28 J/K/mol	–
64.85 K	83.06 J/K/mol	82.76 J/K/mol
64.86 K	84.44 J/K/mol	–
70 K	86.38 J/K/mol and 90.67 J/K/mol and 92.04 J/K/mol	89.94 J/K/mol
70.56 K	86.79 J/K/mol	–
70.85 K	91.72 J/K/mol	–
70.86 K	93.1 J/K/mol	90.79 J/K/mol
77.13 K	95.12 J/K/mol	–
77.42 K	100.73 J/K/mol	99.43 J/K/mol
77.43 K	102.26 J/K/mol	–
80 K	98.35 J/K/mol and 103.93 J/K/mol and 105.47 J/K/mol	102.42 J/K/mol
84.27 K	104 J/K/mol	–
84.6 K	109.85 J/K/mol	–
84.61 K	111.93 J/K/mol	108.29 J/K/mol
90 K	109.29 J/K/mol and 115.76 J/K/mol and 117.61 J/K/mol	113.66 J/K/mol
92.13 K	112.13 J/K/mol	–
92.46 K	118.78 J/K/mol	116.45 J/K/mol
92.47 K	120.62 J/K/mol	–
100 K	119.26 J/K/mol and 126.37 J/K/mol and 128.56 J/K/mol	123.8 J/K/mol
100.71 K	118.91 J/K/mol	–
101.03 K	127.27 J/K/mol	–
101.04 K	129.19 J/K/mol	124.6 J/K/mol
110 K	128.39 J/K/mol and 136.02 J/K/mol and 138.51 J/K/mol	133.08 J/K/mol
110.81 K	128.62 J/K/mol	–
111.15 K	136.95 J/K/mol	133.87 J/K/mol
111.16 K	139.25 J/K/mol	–
120 K	136.82 J/K/mol and 144.91 J/K/mol and 147.68 J/K/mol	141.69 J/K/mol
120.85 K	137.96 J/K/mol	–
121.21 K	146.05 J/K/mol	142.99 J/K/mol
121.23 K	149.18 J/K/mol	–
130 K	144.69 J/K/mol and 153.25 J/K/mol and 156.24 J/K/mol	149.79 J/K/mol
